Legend:
[1] = system: A549-ACE2 infected with SARS-CoV-2; test: cell count relative to DMSO; higher = less toxic; settings: 24 h
Caco-2 [2] = test: cell viability relative to DMSO; higher = less toxic; settings: 72 h
Calu-3 [3] = test: as above; settings: 72 h
HepG2 [4] = test: as above; settings: 72 h
U2OS [5] = test: as above; settings: 72 h
Vero E6 [6] = test: as above; settings: 72 h
[7] = system: A549-ACE2 infected with SARS-CoV-2; test: SARS-CoV-2 infection rate relative to DMSO; higher = more infection; settings: 24 h
A549-ACE2 = test: drug-induced phospholipidosis relative to tamoxifen; higher = more phospholipidosis
[8] = system: A549-ACE2 infected with SARS-CoV-2; test: morphology score (similarity to uninfected cells); higher = more like uninfected cells; settings: 24 h
Caco-2 [9] = test: relative viability EC50 (midpoint between 100% and the lowest measured viability); higher = less toxic; settings: 72 h
HepG2 [10] = test: as above; settings: 72 h
U2OS [11] = test: as above; settings: 72 h
Caco-2 [12] = test: drug sensitivity score (DSS) for viability; higher = more toxic; extreme values may be limits of the assay; settings: 72 h
Calu-3 [13] = test: as above; settings: 72 h
HepG2 [14] = test: as above; settings: 72 h
U2OS [15] = test: as above; settings: 72 h
Vero E6 [16] = test: as above; settings: 72 h
Calu-3 [17] = test: relative viability EC50 (midpoint between 100% and the lowest measured viability); higher = less toxic; settings: 72 h
Vero E6 [18] = test: as above; settings: 72 h

CC(=O)[O-].CC(=O)[O-].N.NC1CCCCC1.[Cl-].[Cl-].[Pt+4] [satraplatin]
Settings	SARS-CoV-2 infection rate, [7] [%]	cell count, [1] [%]	cell viability, Caco-2 [2] [%]	cell viability, Calu-3 [3] [%]	cell viability, HepG2 [4] [%]	cell viability, U2OS [5] [%]	cell viability, Vero E6 [6] [%]	morphology score, [8]
1 nM	–	–	95.7	113	105	104	106	–
10 nM	–	–	99.7	119	96.5	109	103	–
0.1 µM	107	107	–	–	–	–	–	0.11
100 nM	–	–	93.5	96.6	102	103	93.4	–
0.3 µM	108	94	–	–	–	–	–	-0.19
1 µM	90	98	–	–	–	–	–	0.26
1000 nM	–	–	93.3	94.8	73.8	105	91.7	–
3 µM	97	93	–	–	–	–	–	0.04
10000 nM	–	–	42	69	36.1	8.5	68.1	–

drug-induced phospholipidosis [%], A549-ACE2
Settings	0.3 µM	0.833333 µM	3.33333 µM	6.66667 µM	10 µM
24 h	3.84	0.69	3.32	0.26	5.28
48 h	3.35	-1.19	-0.57	-1.29	-2.3
72 h	2.49	-2.74	0.684	–	–

Settings	drug sensitivity score	relative viability EC50 [nM]
Caco-2 [9]	–	2210
Caco-2 [12]	4.3	–
Calu-3 [13]	2.2	–
HepG2 [10]	–	1160
HepG2 [14]	7	–
U2OS [11]	–	3440
U2OS [15]	4.7	–
Vero E6 [16]	2.4	–

CCOC(=O)NNc1nncc2ccccc12 [todralazine]
cell viability [%]
Settings	Caco-2 [2]	Calu-3 [3]	HepG2 [4]	U2OS [5]	Vero E6 [6]
1 nM	90.4	84.4	79.3	98.6	101
10 nM	111	109	97.3	100	88.3
100 nM	84.2	101	125	97.1	97.3
1000 nM	94.4	110	112	102	91.5
10000 nM	117	103	97.3	105	99.4

Settings	drug sensitivity score	relative viability EC50 [nM]
Caco-2 [9]	–	> 10000
Caco-2 [12]	0	–
Calu-3 [13]	0	–
Calu-3 [17]	–	> 10000
HepG2 [10]	–	> 10000
HepG2 [14]	0	–
U2OS [11]	–	> 10000
U2OS [15]	0	–
Vero E6 [16]	0	–
Vero E6 [18]	–	> 10000

CC[C@@]1(O)C(=O)OCc2c1cc1n(c2=O)Cc2cc3c(CN(C)C)c(O)ccc3nc2-1 [topotecan]
cell viability [%]
Settings	Caco-2 [2]	Calu-3 [3]	HepG2 [4]	U2OS [5]	Vero E6 [6]
1 nM	97.7	111	110	101	102
10 nM	92.8	102	70.3	107	97.3
100 nM	83.3	77.3	48.6	97.9	95.1
1000 nM	58.6	47.2	18.8	60.6	65.1
10000 nM	16.2	20.1	1.4	5.9	39.8

Settings	drug sensitivity score	relative viability EC50 [nM]
Caco-2 [9]	–	748
Caco-2 [12]	10.4	–
Calu-3 [13]	12.6	–
Calu-3 [17]	–	380
HepG2 [10]	–	75.7
HepG2 [14]	23.6	–
U2OS [11]	–	1160
U2OS [15]	10.2	–
Vero E6 [16]	7.5	–
Vero E6 [18]	–	756

COc1cc2ncnc(Nc3cccc(Cl)c3)c2cc1OC [tyrphostin-AG-1478]
Settings	SARS-CoV-2 infection rate, [7] [%]	cell count, [1] [%]	cell viability, Caco-2 [2] [%]	cell viability, Calu-3 [3] [%]	cell viability, HepG2 [4] [%]	cell viability, U2OS [5] [%]	cell viability, Vero E6 [6] [%]	morphology score, [8]
1 nM	–	–	102	107	99.7	103	98.6	–
10 nM	–	–	88.6	103	85.3	96.1	100	–
100 nM	–	–	97.4	93.6	101	96.2	84.9	–
0.3 µM	101	97	–	–	–	–	–	-0.07
1000 nM	–	–	80.5	45.1	100	92.7	64.3	–
3 µM	91	102	–	–	–	–	–	0.32
10 µM	57	106	–	–	–	–	–	0.52
10000 nM	–	–	72.4	31.3	67.3	87.7	48.2	–
30 µM	19	69	–	–	–	–	–	0.35

drug-induced phospholipidosis [%], A549-ACE2
Settings	0.3 µM	0.833333 µM	3.33333 µM	6.66667 µM	10 µM	30 µM
24 h	3.78	0.06	-0.97	3.23	3.9	3.18
48 h	3.39	-0.45	-0.89	-0.86	1.84	-2.59
72 h	0.893	-2.52	-3.56	-0.746	0.696	-0.954

Settings	drug sensitivity score	relative viability EC50 [nM]
Caco-2 [12]	3.1	–
Calu-3 [13]	11.1	–
Calu-3 [17]	–	422
HepG2 [14]	1.5	–
U2OS [11]	–	> 10000
U2OS [15]	0.1	–
Vero E6 [16]	8.2	–
Vero E6 [18]	–	335

CC(C)(Sc1ccncc1-c1ccc(C#N)c2ccccc12)C(=O)O [verinurad]
cell viability [%]
Settings	Caco-2 [2]	Calu-3 [3]	HepG2 [4]	U2OS [5]	Vero E6 [6]
1 nM	97.6	106	103	103	95.3
10 nM	93.2	93.7	99.8	99.5	101
100 nM	101	90.9	93.3	96.8	91.9
1000 nM	95	113	105	99.8	99.4
10000 nM	101	96.8	122	103	106

Settings	drug sensitivity score	relative viability EC50 [nM]
Caco-2 [9]	–	> 10000
Caco-2 [12]	0	–
Calu-3 [13]	0	–
Calu-3 [17]	–	> 10000
HepG2 [10]	–	> 10000
HepG2 [14]	0	–
U2OS [11]	–	> 10000
U2OS [15]	0	–
Vero E6 [16]	0	–
Vero E6 [18]	–	> 10000

O=c1ncccn1[C@@H]1O[C@H](CO)[C@@H](O)[C@H]1O [zebularine]
cell viability [%]
Settings	Caco-2 [2]	Calu-3 [3]	HepG2 [4]	U2OS [5]	Vero E6 [6]
1 nM	103	94.4	113	97.8	99.6
10 nM	102	102	97.5	99.2	99.1
100 nM	104	85.9	111	96.8	102
1000 nM	97.9	96.7	101	101	97.9
10000 nM	101	84.4	103	92.6	99.1

Settings	drug sensitivity score	relative viability EC50 [nM]
Caco-2 [9]	–	> 10000
Caco-2 [12]	0	–
Calu-3 [13]	0.3	–
Calu-3 [17]	–	> 10000
HepG2 [10]	–	> 10000
HepG2 [14]	0	–
U2OS [11]	–	> 10000
U2OS [15]	0	–
Vero E6 [16]	0	–
Vero E6 [18]	–	> 10000
